Test results: patent US11046680B1, “Heteroaryl-substituted triazoles as APJ receptor agonists” (priority 2016, dated 2021)
pEC50: −log10 of the molar value.

What follows are compounds tested against human APJ receptor (Homo sapiens (Human), UniProt P35414) (assay: biochemical). Conditions: [35S]GTPγS binding, CHO membranes expressing human APJ receptor; read-out: Activity hAPJ SPA EC50 IP.
Assay type: biochemical
Summary of the method: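 Membranes of a stable CHO line carrying human APJ (pFLAG-CMV-3) were used in a GTPγS binding format; buffer GDP, MgCl2 and NaCl were optimized, and plates were read after 90 min at RT.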

Chain of human APJ receptor (P35414 whole entry): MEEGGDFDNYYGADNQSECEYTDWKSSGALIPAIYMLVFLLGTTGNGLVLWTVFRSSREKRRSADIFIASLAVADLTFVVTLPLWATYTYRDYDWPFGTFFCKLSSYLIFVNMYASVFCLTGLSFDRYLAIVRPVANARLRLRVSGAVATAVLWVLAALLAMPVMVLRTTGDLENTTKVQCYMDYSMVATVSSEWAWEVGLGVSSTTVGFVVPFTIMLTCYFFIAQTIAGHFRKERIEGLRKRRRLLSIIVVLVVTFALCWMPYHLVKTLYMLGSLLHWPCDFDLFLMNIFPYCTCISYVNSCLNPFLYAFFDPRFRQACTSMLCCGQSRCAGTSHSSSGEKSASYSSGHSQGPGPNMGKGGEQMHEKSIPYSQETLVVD

SMILES	pEC50
COc1cccc(OC)c1-n1c(NS(=O)(=O)CCc2ccc(Cl)cc2)nnc1-c1cocn1 [Example 139.0, 2-(4-chlorophenyl)-N-(4-(2,6-dimethoxyphenyl)-5-(oxazol-4-yl)-4H-1,2,4-triazol-3-yl)ethanesulfonamide]	6.93
COc1cccc(OC)c1-n1c(NS(=O)(=O)CCc2ccc(F)cc2Br)nnc1-c1nccs1 [Example 140.0, 2-(2-bromo-4-fluorophenyl)-N-(4-(2,6-dimethoxyphenyl)-5-(thiazol-2-yl)-4H-1,2,4-triazol-3-yl)ethanesulfonamide]	7.61
COc1cccc(OC)c1-n1c(NS(=O)(=O)CCc2ccc(Cl)cc2)nnc1-c1ccsc1 [Example 141.0, 2-(4-chlorophenyl)-N-(4-(2,6-dimethoxyphenyl)-5-(thiophen-3-yl)-4H-1,2,4-triazol-3-yl)ethanesulfonamide]	8.03
COc1cccc(OC)c1-n1c(NS(=O)(=O)CCc2ccc(Cl)cc2)nnc1-c1nc(C)cs1 [Example 142.0, 2-(4-chlorophenyl)-N-(4-(2,6-dimethoxyphenyl)-5-(4-methylthiazol-2-yl)-4H-1,2,4-triazol-3-yl)ethanesulfonamide]	7.77
COc1cccc(OC)c1-n1c(NS(=O)(=O)CCc2ccc(Cl)cc2)nnc1-c1ncc(C)s1 [Example 143.0, 2-(4-chlorophenyl)-N-(4-(2,6-dimethoxyphenyl)-5-(5-methylthiazol-2-yl)-4H-1,2,4-triazol-3-yl)ethanesulfonamide]	6.63
COc1cccc(OC)c1-n1c(NS(=O)(=O)CCc2ccc(Cl)cc2)nnc1-c1ncc(Cl)s1 [Example 144.0, 2-(4-chlorophenyl)-N-(5-(5-chlorothiazol-2-yl)-4-(2,6-dimethoxyphenyl)-4H-1,2,4-triazol-3-yl)ethanesulfonamide]	6.48
COc1cccc(OC)c1-n1c(NS(=O)(=O)CCc2ccc(Cl)cc2)nnc1-c1cc(C)on1 [Example 145.0, 2-(4-chlorophenyl)-N-(4-(2,6-dimethoxyphenyl)-5-(5-methylisoxazol-3-yl)-4H-1,2,4-triazol-3-yl)ethanesulfonamide]	7.15
COCc1nc(-c2nnc(NS(=O)(=O)CCc3ccc(Cl)cc3)n2-c2c(OC)cccc2OC)cs1 [Example 146.0]	7.01
COc1cccc(OC)c1-n1c(NS(=O)(=O)CCc2ccc(F)cc2C#N)nnc1-c1nc(C)cs1 [Example 147.0, 2-(2-Cyano-4-fluorophenyl)-N-(4-(2,6-dimethoxyphenyl)-5-(4-methylthiazol-2-yl)-4H-1,2,4-triazol-3-yl)ethanesulfonamide]	8.89
COc1cccc(OC)c1-n1c(NS(=O)(=O)CCc2ccc(F)cc2C#N)nnc1-c1csc(C)n1 [Example 148.0, 2-(2-cyano-4-fluorophenyl)-N-(4-(2,6-dimethoxyphenyl)-5-(2-methylthiazol-4-yl)-4H-1,2,4-triazol-3-yl)ethanesulfonamide]	7.51
COc1cccc(OC)c1-n1c(NS(=O)(=O)CCc2ccc(Cl)cc2)nnc1-c1csc(C)n1 [Example 149.0, 2-(4-chlorophenyl)-N-(4-(2,6-dimethoxyphenyl)-5-(2-methylthiazol-4-yl)-4H-1,2,4-triazol-3-yl)ethanesulfonamide]	7.57
COc1cccc(OC)c1-n1c(NS(=O)(=O)CCc2ccc(F)cc2C#N)nnc1-c1nc(C(C)C)cs1 [Example 151.0, 2-(2-cyano-4-fluorophenyl)-N-(4-(2,6-dimethoxyphenyl)-5-(4-isopropylthiazol-2-yl)-4H-1,2,4-triazol-3-yl)ethanesulfonamide]	7.51
CCc1csc(-c2nnc(NS(=O)(=O)CCc3ccc(Cl)cc3)n2-c2c(OC)cccc2OC)n1 [Example 152.0, 2-(4-chlorophenyl)-N-(4-(2,6-dimethoxyphenyl)-5-(4-ethylthiazol-2-yl)-4H-1,2,4-triazol-3-yl)ethanesulfonamide]	< 4.90
CCc1csc(-c2nnc(NS(=O)(=O)CCc3ccc(F)cc3C#N)n2-c2c(OC)cccc2OC)n1 [Example 153.0, 2-(2-cyano-4-fluorophenyl)-N-(4-(2,6-dimethoxyphenyl)-5-(4-ethylthiazol-2-yl)-4H-1,2,4-triazol-3-yl)ethanesulfonamide]	7.96
CCc1nc(-c2nnc(NS(=O)(=O)CCc3ccc(F)cc3C#N)n2-c2c(OC)cccc2OC)cs1 [Example 154.0, 2-(2-cyano-4-fluorophenyl)-N-(4-(2,6-dimethoxyphenyl)-5-(2-ethylthiazol-4-yl)-4H-1,2,4-triazol-3-yl)ethanesulfonamide]	7.21
COc1cccc(OC)c1-n1c(NS(=O)(=O)CCc2ccc(F)cc2C#N)nnc1-c1nc(C2CC2)cs1 [Example 155.0, 2-(2-cyano-4-fluorophenyl)-N-(5-(4-cyclopropylthiazol-2-yl)-4-(2,6-dimethoxyphenyl)-4H-1,2,4-triazol-3-yl)ethanesulfonamide]	8.00

SMILES	pEC50
COc1cccc(OC)c1-n1c(NS(=O)(=O)[C@H](C)Cc2ncc(F)cn2)nnc1-c1nc(C(C)C)cs1 [Example 156.0]	9.49
COc1cccc(OC)c1-n1c(NS(=O)(=O)[C@H](C)Cc2ncc(F)cn2)nnc1-c1nc(C2CC2)cs1 [Example 161.0]	8.42
CCn1ccc(-c2nnc(NS(=O)(=O)[C@@H](C)[C@H](C)c3ncc(F)cn3)n2-c2c(OC)cccc2OC)n1 [Example 191.0, (2S,3R)-N-(4-(2,6-dimethoxyphenyl)-5-(1-ethyl-1H-pyrazol-3-yl)-4H-1,2,4-triazol-3-yl)-3-(5-fluoro-2-pyrimidinyl)-2-butanesulfonamide]	9.20
COc1cccc(OC)c1-n1c(NS(=O)(=O)[C@@H](C)[C@H](C)c2ncc(F)cn2)nnc1-c1ccn(C(F)F)n1 [Example 194.0, (2S,3R)-N-(5-(1-(difluoromethyl)-1H-pyrazol-3-yl)-4-(2,6-dimethoxyphenyl)-4H-1,2,4-triazol-3-yl)-3-(5-fluoro-2-pyrimidinyl)-2-butanesulfonamide]	9.32
COc1nccc(-c2nnc(NS(=O)(=O)[C@@H](C)[C@H](C)c3ncc(F)cn3)n2-c2c(OC)cccc2OC)n1 [Example 197.0, (2S,3R)-N-(4-(2,6-dimethoxyphenyl)-5-(2-methoxy-4-pyrimidinyl)-4H-1,2,4-triazol-3-yl)-3-(5-fluoro-2-pyrimidinyl)-2-butanesulfonamide]	8.62
COc1cccc(OC)c1-n1c(NS(=O)(=O)[C@@H](C)[C@H](C)c2ncc(C)cn2)nnc1-c1ccn(C(F)F)n1 [Example 198.0, (2S,3R)-N-(5-(1-(difluoromethyl)-1H-pyrazol-3-yl)-4-(2,6-dimethoxyphenyl)-4H-1,2,4-triazol-3-yl)-3-(5-methyl-2-pyrimidinyl)-2-butanesulfonamide]	9.70
CCO[C@H](c1ncc(C)cn1)[C@H](C)S(=O)(=O)Nc1nnc(-c2ccn(C(F)F)n2)n1-c1c(OC)cccc1OC [Example 199.0, (1R,2S)-N-(5-(1-(difluoromethyl)-1H-pyrazol-3-yl)-4-(2,6-dimethoxyphenyl)-4H-1,2,4-triazol-3-yl)-1-ethoxy-1-(5-methyl-2-pyrimidinyl)-2-propanesulfonamide]	9.59
COc1cccc(OC)c1-n1c(NS(=O)(=O)[C@@H](C)[C@H](OC)c2ncc(C)cn2)nnc1-c1ccn(C)n1 [Example 200.0, (1R,2S)-N-(4-(2,6-dimethoxyphenyl)-5-(1-methyl-1H-pyrazol-3-yl)-4H-1,2,4-triazol-3-yl)-1-methoxy-1-(5-methyl-2-pyrimidinyl)-2-propanesulfonamide]	9.10
COc1cccc(OC)c1-n1c(NS(=O)(=O)[C@@H](C)[C@H](C)c2ncc(C)cn2)nnc1-c1ccn(C)n1 [Example 201.0, (2S,3R)-N-(4-(2,6-dimethoxyphenyl)-5-(1-methyl-1H-pyrazol-3-yl)-4H-1,2,4-triazol-3-yl)-3-(5-methyl-2-pyrimidinyl)-2-butanesulfonamide]	9.03
COc1cncc(-c2nnc(NS(=O)(=O)[C@@H](C)[C@H](C)c3ncc(C)cn3)n2-c2c(OC)cccc2OC)n1 [Example 202.0, (2S,3R)-N-(4-(2,6-dimethoxyphenyl)-5-(6-methoxy-2-pyrazinyl)-4H-1,2,4-triazol-3-yl)-3-(5-methyl-2-pyrimidinyl)-2-butanesulfonamide]	8.54
COc1cccc(OC)c1-n1c(NS(=O)(=O)[C@@H](C)[C@H](OC)c2ncc(C)cn2)nnc1-c1ccn(C(F)F)n1 [Example 203.0, (1R,2S)-N-(5-(1-(difluoromethyl)-1H-pyrazol-3-yl)-4-(2,6-dimethoxyphenyl)-4H-1,2,4-triazol-3-yl)-1-methoxy-1-(5-methyl-2-pyrimidinyl)-2-propanesulfonamide]	8.68
COc1cccc(OC)c1-n1c(NS(=O)(=O)[C@@H](C)[C@H](OC)c2ncc(C)cn2)nnc1-c1ncn(C)n1 [Example 204.0, (1R,2S)-N-(4′-(2,6-dimethoxyphenyl)-1-methyl-1H,4′H-3,3′-bi-1,2,4-triazol-5′-yl)-1-methoxy-1-(5-methyl-2-pyrimidinyl)-2-propanesulfonamide]	7.28
COc1cccc(OC)c1-n1c(NS(=O)(=O)[C@@H](C)[C@H](OC)c2ncc(C)cn2)nnc1-c1cc2n(n1)CCC2 [Example 205.0, (1R,2S)-N-(5-(5,6-dihydro-4H-pyrrolo[1,2-b]pyrazol-2-yl)-4-(2,6-dimethoxyphenyl)-4H-1,2,4-triazol-3-yl)-1-methoxy-1-(5-methyl-2-pyrimidinyl)-2-propanesulfonamide]	8.52
COc1cccc(OC)c1-n1c(NS(=O)(=O)[C@@H](C)[C@H](OC)c2ncc(C)cn2)nnc1-c1cnc2[nH]ccc2n1 [Example 206.0]	7.02
COc1cccc(OC)c1-n1c(NS(=O)(=O)[C@@H](C)[C@H](OC)c2ncc(Cl)cn2)nnc1-c1ccn(C(F)F)n1 [Example 207.0, (1R,2S)-1-(5-chloro-2-pyrimidinyl)-N-(5-(1-(difluoromethyl)-1H-pyrazol-3-yl)-4-(2,6-dimethoxyphenyl)-4H-1,2,4-triazol-3-yl)-1-methoxy-2-propanesulfonamide]	9.89
